Test results as given in BigSolDB 2.1.

CC(=O)[C@@]12O[C@@H]1C[C@H]1[C@@H]3CCC4=CC(=O)CC[C@]4(C)[C@H]3[C@H](O)C[C@@]12C
Conditions	solubility (mole fraction)
in 1,4-dioxane, 298 K	0.00293
in 1,4-dioxane, 302.75 K	0.00353
in 1,4-dioxane, 306.39 K	0.00408
in 1,4-dioxane, 310.55 K	0.00447
in 1,4-dioxane, 314.75 K	0.00518
in 1,4-dioxane, 317.25 K	0.0055
in 1,4-dioxane, 320.35 K	0.00605
in 1,4-dioxane, 325.05 K	0.00687
in 1,4-dioxane, 328.55 K	0.00765
in 1,4-dioxane, 332.05 K	0.00845
in 1,4-dioxane, 335.35 K	0.00932
in 1,4-dioxane, 340.15 K	0.0105
in DMSO, 297.75 K	0.00423
in DMSO, 301.3 K	0.00515
in DMSO, 311.06 K	0.00772
in DMSO, 315.15 K	0.00843
in DMSO, 319.05 K	0.00966
in DMSO, 324.25 K	0.0112
in DMSO, 327.15 K	0.0126
in DMSO, 329.55 K	0.0141
in DMSO, 333.67 K	0.016
in DMSO, 337.43 K	0.0178
in DMSO, 340.25 K	0.0196
in DMSO, 344.65 K	0.0228
in isopropanol, 297.95 K	0.000542
in isopropanol, 300.25 K	0.000643
in isopropanol, 303.45 K	0.000717
in isopropanol, 308.05 K	0.000952
in isopropanol, 312.65 K	0.00126
in isopropanol, 316.35 K	0.00147
in isopropanol, 320.75 K	0.0019
in isopropanol, 323.85 K	0.00212
in isopropanol, 327.45 K	0.00262
in isopropanol, 331.95 K	0.00311
in isopropanol, 335.65 K	0.00368
in isopropanol, 340.25 K	0.00456
in n-butanol, 298.75 K	0.000597
in n-butanol, 304.45 K	0.000775
in n-butanol, 307.35 K	0.000935
in n-butanol, 310.75 K	0.00113
in n-butanol, 315.67 K	0.00143
in n-butanol, 320.75 K	0.00177
in n-butanol, 324.35 K	0.00205
in n-butanol, 328.55 K	0.00237
in n-butanol, 331.65 K	0.00268
in n-butanol, 334.15 K	0.00304
in n-butanol, 336.45 K	0.00334
in n-butanol, 340.15 K	0.00384
in n-propanol, 300.5 K	0.000796
in n-propanol, 303.25 K	0.000933
in n-propanol, 306.75 K	0.00109
in n-propanol, 309.9 K	0.00125
in n-propanol, 312.7 K	0.00142
in n-propanol, 317.15 K	0.00172
in n-propanol, 321.67 K	0.00208
in n-propanol, 324.85 K	0.00235
in n-propanol, 327.95 K	0.0027
in n-propanol, 332.65 K	0.00322
in n-propanol, 336.85 K	0.00382
in n-propanol, 341.65 K	0.00463

CC(=O)[C@@]12O[C@@H]1C[C@H]1[C@@H]3CCC4=CC(=O)CC[C@]4(C)[C@H]3CC[C@@]12C
Conditions	solubility (mole fraction)
in DMSO, 312.45 K	0.00539
in DMSO, 315.5 K	0.00572
in DMSO, 318.35 K	0.00657
in DMSO, 322.35 K	0.00756
in DMSO, 326.5 K	0.0087
in DMSO, 328.65 K	0.00937
in DMSO, 331.2 K	0.0101
in DMSO, 334.9 K	0.0115
in DMSO, 339.15 K	0.0135
in DMSO, 343.95 K	0.0161
in DMSO, 348.35 K	0.0188
in DMSO, 353.45 K	0.0223
in isopropanol, 296.65 K	0.00307
in isopropanol, 299.55 K	0.00341
in isopropanol, 303.25 K	0.00405
in isopropanol, 306.35 K	0.00486
in isopropanol, 311.75 K	0.00598
in isopropanol, 314.8 K	0.00689
in isopropanol, 317.85 K	0.00752
in isopropanol, 322.95 K	0.00992
in isopropanol, 325.6 K	0.011
in isopropanol, 328.75 K	0.0125
in isopropanol, 333.25 K	0.0152
in isopropanol, 337.45 K	0.0177
in n-butanol, 300.85 K	0.00412
in n-butanol, 303.9 K	0.00473
in n-butanol, 306.75 K	0.00543
in n-butanol, 309.85 K	0.00624
in n-butanol, 314.25 K	0.00765
in n-butanol, 319.18 K	0.00919
in n-butanol, 323.55 K	0.0109
in n-butanol, 328.05 K	0.0134
in n-butanol, 332.75 K	0.0162
in n-butanol, 336.66 K	0.019
in n-butanol, 340.3 K	0.0219
in n-butanol, 343.5 K	0.0244
in n-propanol, 299.15 K	0.00349
in n-propanol, 304.05 K	0.00459
in n-propanol, 307.5 K	0.00524
in n-propanol, 311.55 K	0.00623
in n-propanol, 313.7 K	0.00684
in n-propanol, 316.25 K	0.00769
in n-propanol, 320.65 K	0.00908
in n-propanol, 324.25 K	0.0105
in n-propanol, 328.25 K	0.0122
in n-propanol, 332.05 K	0.0143
in n-propanol, 335.25 K	0.0165
in n-propanol, 340.6 K	0.0203
